Key:
Assay in all cases: relative viability (nuclei count vs DMSO), 5 days (fraction); higher = more cells survive
FH535 + Bortezomib = compound: CC1=C(C=CC(=C1)[N+](=O)[O-])NS(=O)(=O)C2=C(C=CC(=C2)Cl)Cl [FH535] + CC(C)C[C@H](NC(=O)[C@H](Cc1ccccc1)NC(=O)c1cnccn1)B(O)O [Bortezomib] (partner 0.002 µM)
Summary of the method: (§1)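 Each reported value is a median over duplicate plates. It expresses relative viability: treated-well nuclei count divided by vehicle-well nuclei count. Lung cancer cell lines in 1536-well plates were dosed by pin tool a day after seeding, alone with one drug or with a fixed anchor-drug dose plus five library-drug doses (not always all listed) in √10 steps, and nuclei were counted after 5 days.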

FH535 + Luminespib = compound: CC1=C(C=CC(=C1)[N+](=O)[O-])NS(=O)(=O)C2=C(C=CC(=C2)Cl)Cl [FH535] + CCNC(=O)c1noc(-c2cc(C(C)C)c(O)cc2O)c1-c1ccc(CN2CCOCC2)cc1 [Luminespib] (partner 0.01 µM)
Summary of the method: as §1

FH535 + Foretinib = compound: CC1=C(C=CC(=C1)[N+](=O)[O-])NS(=O)(=O)C2=C(C=CC(=C2)Cl)Cl [FH535] + COc1cc2c(Oc3ccc(NC(=O)C4(C(=O)Nc5ccc(F)cc5)CC4)cc3F)ccnc2cc1OCCCN1CCOCC1 [Foretinib] (partner 0.25 µM)
Summary of the method: as §1

FH535 + Tozasertib = compound: CC1=C(C=CC(=C1)[N+](=O)[O-])NS(=O)(=O)C2=C(C=CC(=C2)Cl)Cl [FH535] + Cc1cc(Nc2cc(N3CCN(C)CC3)nc(Sc3ccc(NC(=O)C4CC4)cc3)n2)n[nH]1 [Tozasertib] (partner 0.1 µM)
Summary of the method: as §1

FH535 + Vorinostat = compound: CC1=C(C=CC(=C1)[N+](=O)[O-])NS(=O)(=O)C2=C(C=CC(=C2)Cl)Cl [FH535] + O=C(CCCCCCC(=O)Nc1ccccc1)NO [Vorinostat] (partner 1 µM)
Summary of the method: as §1

Cell Line	relative viability (FH535 + Bortezomib; first compound 0.04 µM)	relative viability (FH535 + Bortezomib; first compound 0.1265 µM)	relative viability (FH535 + Bortezomib; first compound 0.4 µM)	relative viability (FH535 + Bortezomib; first compound 1.265 µM)	relative viability (FH535 + Luminespib; first compound 0.04 µM)	relative viability (FH535 + Luminespib; first compound 0.1265 µM)	relative viability (FH535 + Luminespib; first compound 0.4 µM)	relative viability (FH535 + Luminespib; first compound 1.265 µM)	relative viability (FH535 + Foretinib; first compound 0.04 µM)	relative viability (FH535 + Foretinib; first compound 0.1265 µM)	relative viability (FH535 + Foretinib; first compound 0.4 µM)	relative viability (FH535 + Foretinib; first compound 1.265 µM)	relative viability (FH535 + Tozasertib; first compound 0.04 µM)	relative viability (FH535 + Tozasertib; first compound 0.1265 µM)	relative viability (FH535 + Tozasertib; first compound 0.4 µM)	relative viability (FH535 + Tozasertib; first compound 1.265 µM)	relative viability (FH535 + Vorinostat; first compound 0.04 µM)	relative viability (FH535 + Vorinostat; first compound 0.1265 µM)	relative viability (FH535 + Vorinostat; first compound 0.4 µM)	relative viability (FH535 + Vorinostat; first compound 1.265 µM)
NCI-H3122	0.979	0.976	0.989	0.919	0.0802	0.122	0.0923	0.0705	0.888	0.901	0.924	0.931	0.329	0.367	0.475	0.369	0.901	1.1	0.979	0.966
PC-3 [JPC-3]	0.846	0.848	0.741	0.713	0.794	0.76	0.546	0.399	1	1	0.879	0.582	0.846	0.901	0.795	0.513	0.757	0.769	0.687	0.529
PC-14	0.938	0.885	0.815	0.759	0.126	0.168	0.152	0.117	1.03	1.06	0.982	1.02	0.507	0.693	0.615	0.617	0.741	0.607	0.782	0.797
RERF-LC-KJ	1.11	1.11	1.11	0.788	1.27	1.14	1.13	0.728	0.927	0.895	0.869	0.787	0.515	0.52	0.473	0.386	0.632	0.64	0.685	0.573
SK-LU-1	0.85	1.19	1.04	0.926	0.181	0.21	0.198	0.214	0.834	0.805	0.822	0.662	0.319	0.38	0.316	0.32	0.731	0.814	0.736	0.456
SW 1573	0.957	1.12	1.07	0.862	0.237	0.346	0.193	0.638	0.784	0.944	1.01	0.89	0.171	0.164	0.215	0.161	0.614	0.666	1.04	0.66
UMC-11	0.545	0.478	0.48	0.54	1.12	1.03	1.02	0.763	0.967	1.13	1.03	0.88	0.189	0.213	0.196	0.202	0.346	0.384	0.309	0.469

Reference: the supplement of paper PMC10307832
